# From US5424329A, “Indole-2-carboxamides as inhibitors of cell adhesion” (Warner-Lambert Company, priority 1993, dated 1995)
# Structures can show the parent of a compound that is named as a salt.
# Tested on: human neutrophil adhesion to TNF-α stimulated human umbilical vein endothelial cells (HUVEC)
# Assay: Inhibition of human neutrophil adhesion to TNF-stimulated human umbilical vein endothelial cells (modified method, calcein-AM fluorescence)
# Type: cell-based
# Details: 4 hours, IC50 from 33.3, 10.0, 3.3 and 1.0 μM
# Method: MODIFIED METHOD FOR DETERMINING THE INHIBITION OF HUMAN NEUTROPHIL ADHESION TO TNF-α, IL-1α, AND LPS STIMULATED
# HI/MAN UMBILICAL VEIN ENDOTHELIAL CELLS BY
# 3-SUBSTITUTED-INDOLE-2-CARBOXAMIDES
# Second passage HUVEC (Clonetics Corporation, San Diego, Calif., CC-2617) were seeded into Corning (Corning glass works, Corning, N.Y.) 96-well cell culture plates at approximately 5×10^3 cells/well and grown to confluency in supplemented endothelial basal medium (EBM, MCDB-131, Clonetics, 10 ng/mL EGF, 1 μg/mL hydrocortisone, 0.4% bovine brain extract, 5% Fetal Bovine Serum). One day prior to running the assay, typically 3 days postseeding, the cultures were re-fed with 0.2 mL/well supplemented EBM (S-EBM).
# Preparation of Test Compounds
# Test compounds were prepared as 10 mL stock solutions at a concentration of 1.0 mM. The compounds were initially solubilized in 0.1 mL DMSO followed by the addition of 9.9 mL S-EBM. The drug preparations were then diluted in one step to a concentration of 66.6 μM. Solubilizations and dilutions were performed in polystyrene containers.
# Isolation of Human Neutrophils
# Human neutrophils were isolated from anticoagulant-treated venous blood obtained from healthy volunteers according to the method of Ferrante and Thong, J. Immunol. Methods 1978;24:389-393. The cell preparations consisted of greater than 98% neutrophils.
# Recombinant human tumor necrosis factor-α (TNF, Genzyme, Boston, Mass., code TNF-H) was prepared at 400 U/mL in S-EBM. Stock TNF was prepared to 20,000 U/mL in Delbecco's phosphate buffered saline (PBS, Gibco, Grand Island, N.Y.) plus 0.1% BSA and stored at -70° C. HUVEC were washed one time with 0.2 mL warm unsupplemented EBM and then stimulated for 4 hours at 37° C. with 200 U/mL TNF in the presence of 33.3 μM test compound. This was accomplished by adding 0.1 mL of 400 U/mL TNF and 0.1 mL 66.6 μM test compound. These additions were done slowly as to not disrupt the HUVEC monolayer. Each compound was tested in six wells. Unstimulated (vehicle control) and TNF-stimulated without test compound treatments were also run in each plate.
# One hour prior to adding the neutrophils to the HUVEC, neutrophils (5×10^6 /mL) were labeled for 30 minutes at 37° C. with 5 μM calcein-AM (Molecular Probes, Eugene, Oreg.) in Hanks' balanced salt solution plus 0.45% BSA. Stock calcein was prepared to 5 mM in anhydrous DMSO and stored desiccated at -20° C. At the end of the incubation the cells were washed two times in cold HBSS and resuspended to a final concentration of 1×10^6 cells/mL in unsupplemented EBM.
# Addition of Neutrophils to HUVEC
# At the end of the 4-hour stimulation and immediately prior to the addition of the neutrophils to the HUVEC monolayer, the plates were washed with 0.2 mL warm unsupplemented EBM to remove TNF and drug. Neutrophils (1×10^5 cells) were slowly added to each of the treated wells and incubated for 30 minutes at 37° C. At the end of the incubation the plates were washed two times with 0.2 mL warm unsupplemented EBM followed by a final addition of 0.1 mL for plate scanning.
# Determination of Relative Fluorescence
# The relative fluorescence was determined using a Millipore Cytofluor 2300 system (excitation=480, emission=530, sensitivity=4). Each file was saved on disk as a comma separated value (.CSV) file for import into a spreadsheet.
# Results were expressed as means of percent inhibition of TNF-stimulated adherence. A Quattro Pro (Borland, Scotts Valley, Calif.) spreadsheet has been programmed to accept the raw data and perform all necessary calculations. [formula]
# Linear regression analysis of the means of the inhibition values were used to determine the IC50.
row,Molecule,IC50
1,"COc1ccc2c(c1)c(OC(C)C)c(C(N)=O)n2C [Example 1, 5-Methoxy-1-methyl-3-(1-methylethoxy)-1H-indole-2-carboxamide]",10 µM
2,"CC(C)Oc1c(C(N)=O)n(C)c2ccc(O)cc12 [Example 15, 5-Hydroxy-1-methyl-3-(1-methylethoxy)-1H-indole-2-carboxamide]",7 µM
3,"COc1ccc2[nH]c(C(N)=O)c(OC(C)C)c2c1 [Example 18, 5-Methoxy-3-(1-methylethoxy)-1H-indole-2-carboxamide]",8 µM
4,"COc1ccc2c(c1)c(SC(C)C)c(C(N)=O)n2C [Example 26, 5-Methoxy-1-methyl-3-[(1-methylethyl)thio]-1H-indole-2-carboxamide]",29 µM
5,"CC(C)Sc1c(C(N)=O)n(C)c2ccc(O)cc12 [Example 29, 5-Hydroxy-1-methyl-3-[(1-methylethyl)thio]-1H-indole-2-carboxamide]",43 µM
6,"COCn1c(C(N)=O)c(OC(C)C)c2cc(OC)ccc21 [Example 30, 5-Methoxy-1-methoxymethyl-3-(1-methylethoxy)-1H-indole-2-carboxamide]",34 µM

# Same assay, conditions: @ 33 μM
row,Molecule,inhibition at 33 µM
1,"COc1ccc2c(c1)c(SC)c(C(N)=O)n2C [Example 6, 5-Methoxy-1-methyl-3-(methylthio)-1H-indole-2-carboxamide]",72%
2,"CCOc1c(C(N)=O)n(-c2ccccc2)c2ccc(OC)cc12 [Example 19, 3-Ethoxy-5-methoxy-1-phenyl-1H-indole-2-carboxamide]",13%
3,"CCN(CC)c1c(C(N)=O)[nH]c2ccc(OC)cc12 [Example 20, 3-(Diethylamino)-5-methoxy-1H-indole-2-carboxamide, monohydrochloride]",27%
4,"CC(C)Sc1c(C(N)=O)n(C)c2ccc(OCc3ccccc3)cc12 [Example 23, 1-Methyl-3-[(1-methylethyl)thio]-5-(phenylmethoxy)-1H-indole-2-carboxamide]",15%

# Tested on: human neutrophil adhesion to TNF-α, IL-1α, and LPS-stimulated human umbilical vein endothelial cells (HUVEC)
# Assay: Inhibition of human neutrophil adhesion to TNF-α, IL-1α, and LPS-stimulated human umbilical vein endothelial cells (chromium assay)
# Type: cell-based
# Details: not given
# Description: METHOD FOR DETERMINING THE INHIBITION OF HUMAN NEUTROPHIL ADHESION TO TNF-α, IL-1α, AND LPS-STIMULATED HUMAN UMBILICAL VEIN ENDOTHELIAL
# CELLS BY 3-SUBSTITUTED-INDOLE-2-CARBOXAMIDES
# Neutrophils were isolated from anticoagulant-treated venous blood obtained from healthy human volunteers according to the method of Ferrante and Thong (J. Immunol. Methods 1978;24:389-393). The cell preparations consisted of greater than 98% neutrophils.
# Second passage human umbilical vein endothelial cells (HUVEC) (Clonetics, San Diego, Calif.) were seeded into Falcon 24-well cell culture plates (Becton Dickinson, Lincoln Park, N.J.) at approximately 2×10^4 cells per well. The cells were grown to confluent monolayers in endothelial basal medium (EBM, Clonetics) supplemented with 5% fetal calf serum (Hyclone Laboratories, Logan, Utah), 10 ng/mL EGF, 1μg/mL hydrocortisone, 0.4% bovine brain extract (Clonetics) in 5% CO2 at 37° C. […]
# Stimulation of HUVEC with tumor necrosis factor-α (TNF-α) (Genzyme, Cambridge, Mass.), interleukin (IL-1α) (Genzyme) or E. coli 0111:B4 lipopolysaccharide (LPS) (Sigma) in the presence or absence of drug was initiated 4 hours prior to the addition of neutrophils. […] Lysates were collected and the radioactivity in each well was determined by gamma ray spectroscopy.
row,Molecule,inhibition at 100 µM
1,"COc1ccc2c(c1)c(OC(C)C)c(C(N)=O)n2-c1ccccc1 [Example 16, 5-Methoxy-3-(1-methylethoxy)-1-phenyl-1H-indole-2-carboxamide]",35%

# Tested on: HIV activation in OM-10.1 cells
# Assay: Inhibition of activation of latent HIV in OM-10.1 cells
# Type: cell-based, HIV-1
# Details: Human immunodeficiency virus 1, chronically HIV-infected promyelocytic clone
# Description: The cellular pathways involved in mediating the activating signal from the plasma membrane to the integrated virus, resulting in HIV-1 expression, are much less clear. Recently, the development of a reliable and simple system for evaluating compounds that could prevent activation of latent HIV was reported at the National […] (NCDDG)/AIDS by P. Feorino, S. T. Butera, T. M. Folks, and R. F. Schinazi, Nov. 3-7, 1991. The assay system employed the OM-10.1 cell line, a unique chronically-infected promyelocytic clone which remains CD4+ until HIV-1 activation with tumor necrosis factor-α. The expression of CD4+ on the cell surface and the activity of reverse transcriptase are used as markers for quantitating viral expression. Alternatively, other HIV markers, such as protease activity, which are known to those of skill in the art can be used. OM-10.1 cells remain CD4^+ until viral activation and respond to tumor necrosis factor induction, and therefore, these cultures are used to conveniently and rapidly examine pharmacologics for an ability to prevent CD4^+ down modulation (decrease in expression of CD4^+ on the cell surface) and HIV-1 expression.
row,Molecule,IC50
1,"COc1ccc2c(c1)c(OC(C)C)c(C(N)=O)n2C [Example 1, 5-Methoxy-1-methyl-3-(1-methylethoxy)-1H-indole-2-carboxamide]",0.8 µM

# Tested on: activation of HIV-1 in OM-10.1 cells
# Assay: not given
# Details: poster NCDDG/AIDS 1991; cited from earlier work
row,Molecule,inhibition of the activation of HIV-1
1,"Cc1cn([C@H]2C[C@H](F)[C@@H](CO)O2)c(=O)[nH]c1=O [3'-fluoro-3'-deoxythymidine (FLT), 3'-fluoro-3'-deoxythymidine]",modest inhibitors
2,CC(=O)N(O)CCCCCNC(=O)CCC(=O)N(O)CCCCCNC(=O)CCC(=O)N(O)CCCCCN [desferrioxamine],modest inhibitors
3,interferon Y: interferon Y,modest inhibitors
